A word on the inhibition: it is the share of the control response that was lost under treatment. The term IC50 denotes the point on the concentration scale where inhibition reaches its midpoint.

One assay relates to LDLR. The assay can be described thus: RT-qPCR analysis of LDLR mRNA expression in HepG2 cells. Particulars: HepG2 cells, 3, 10 and 30 μM, 24 h. Format: cell-based, human. Here is the method: To validate that KRX-104130 increased the LDLR gene expression through the DEG analysis, LDLR mRNA expression was investigated in KRX-104130–treated HepG2 cells.
The mRNA expression levels of LDLR in the HepG2 cells were determined by real-time quantitative PCR (RT-qPCR) at the Cosmo Genetech (Sungsoo, Seoul, Korea). The total RNA was extracted from the cultured cells using an RNeasy mini kit (Qiagen, Valencia, CA, USA), and gene expression was analyzed by RT-qPCR using a Bio-Rad CFX96 system (Hercules, CA, USA). The mRNA expression levels were investigated three times in each sample treated with 0 μM, 3 μM, 10 μM, and 30 μM KRX-104130 for 24 h, and each result was obtained from three independent experiments, for 12 samples. For LDLR, the forward primer was 5′-CTCCCGCCAAGATCAAGAAA-3′, and the reverse primer was 5′-GAGATCTAGGGTGATGCCATTG-3′. The housekeeping gene, glyceraldehyde 3-phosphate dehydrogenase (GAPDH), was used as an internal control. The forward primer was 5′-TTGCCATCAATGACCCCTTCA-3′, and the reverse primer was 5′-CGC CCC ACT TGA TTT TGG A-3′. The PCR conditions for all genes were 40 cycles of pre-denaturation at 95 °C for 3 min, amplification at 62 °C for 30 s, and 95 °C for 10 s. The qPCR was performed using CFX manager (Version 3.1).
(In general: In qPCR the cycle at which signal appears reflects the starting amount.)

For assay [1], the target named is T1, human recombinant MCH-1 receptor (Homo sapiens, UniProt Q99705).
T1 construct: purchased Euroscreen S.A. (PerkinElmer)
T1 sequence (Q99705 whole entry): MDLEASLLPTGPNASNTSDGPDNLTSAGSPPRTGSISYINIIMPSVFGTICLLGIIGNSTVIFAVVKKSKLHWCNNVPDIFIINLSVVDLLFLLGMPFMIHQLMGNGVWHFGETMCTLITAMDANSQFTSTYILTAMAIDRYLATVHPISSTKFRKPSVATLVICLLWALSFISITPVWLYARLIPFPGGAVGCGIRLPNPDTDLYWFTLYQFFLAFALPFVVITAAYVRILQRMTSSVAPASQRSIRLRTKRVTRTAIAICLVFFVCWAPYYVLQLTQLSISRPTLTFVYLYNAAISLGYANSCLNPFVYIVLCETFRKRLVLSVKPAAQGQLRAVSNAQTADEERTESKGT
The assay can be described thus: Time-resolved fluorescence (TRF)-based MCHR1 receptor-binding assay with Eu-MCH. Here is the method: An in vitro time-resolved fluorescence (TRF)-based binding assay for MCHR1 was performed to identify the MCHR1 antagonist from the 19 predicted compounds selected through in silico screening. […] In addition, a patch clamp assay was performed to measure the cardiotoxicity of the five compounds. […] Consequently, of the five compounds, only KRX-104130 and KRX-104165 overcame cardiotoxicity.
The receptor-binding affinities of the generated 19 compounds were determined by time-resolved fluorescence (TRF)-based receptor-binding assays using europium-labeled MCH (Eu-MCH) in 96-well AcroWell™ plates. The MCH labeled with europium at the N-1 position was supplied by the Wallac Labeling Service (PerkinElmer, Inc., Waltham, MA, USA). The human recombinant MCH-1 receptor membrane preparation (MCH-1/SLC1 membrane) was obtained from Euroscreen S.A. (PerkinElmer). The binding assay buffer contained 25 mM 4-(2-hydroxyethyl)-1-piperazineethanesulfonic acid (HEPES; pH 7.4), 5 mM MgCl2, 1 mM CaCl2, and 0.5% bovine serum albumin. Total binding was determined from the binding reaction in the presence of 2 nM Eu-MCH and 5 μg/unit MCH-1 receptor membrane for 90 min. Nonspecific Eu–MCH binding was defined in the presence of 0.5 µM unlabeled MCH. After incubation for 90 min, the plate was washed three times with 300 µL of ice-cold 25 mM HEPES buffer (pH 7.4) in an automatic vacuum filtration system. The Eu was dissociated from the bound ligand by the addition of 150 µL of DELFIA enhancement solution (Perkin Elmer) and incubated for 10 min with shaking. Fluorescence signals from dissociated Eu were measured using a multilabel reader (Envision, PerkinElmer) with an excitation wavelength (340 nm) and an emission wavelength (615 nm).

With `COc1nc2cc(F)c(F)cc2nc1NC(=O)NC1CCN(Cc2cc3ccccc3[nH]2)CC1` [KRX-104130], the “LDLR mRNA expression level” value with LDLR is reported as “LDLR upregulation in a concentration-dependent manner”. For the same compound, the inhibition at 10 µM in assay [1] (10 μM, TRF MCHR1 binding, read-out: inhibition rate (%) at 10 μM) came out at 97.1%. In addition, the 50% inhibitory concentration (IC50) in assay [1] (TRF-based binding, 2 nM Eu-MCH) is 20 nM.

Values taken from article PMC8998904, “Identification and New Indication of Melanin-Concentrating Hormone Receptor 1 (MCHR1) Antagonist Derived from Machine Learning and Transcriptome-Based Drug Repositioning Approaches” (International Journal of Molecular Sciences, 2022).
